Results on one compound are retold here after publication PMC7883289, “Synthesis of Paeonol-Ozagrel Conjugate: Structure Characterization and In Vivo Anti-Ischemic Stroke potential” (Frontiers in Pharmacology, 2021).

The logD is lipophilicity at a set pH, counting ionised and neutral species. A higher logD goes with a more lipophilic compound.

The nature of data set [1]: Solubility of POC in solvents (described in words). Format: physicochemical.
Data set [2] can be described thus: Partition coefficient, shake-flask method (n-octanol / aqueous phase). Format: physicochemical. As to conditions: n-octanol / aqueous phase buffered with phosphate pH 7.4, shake-flask, HPLC. The protocol: The partition coefficient of POC was established by the shake-flask method between n–octanol and an aqueous phase ([Redasani and Bari, 2012]). The aqueous phase buffered with phosphate (pH 7.4, 100 ml) and n–octanol (100 ml) was mixed well, placed in a shaking air bath for 72 h, and then left to equilibrate until the two saturated phases completely separated. POC (5 mg) was dissolved in 50 ml of saturated n-octanol and diluted with the saturated aqueous equally. The mixture was placed in an oscillator and shaken for 1 h until the two phases separated. Concentration was analyzed by HPLC method and then the partition coefficient was calculated as the ratio of the concentration of POC in n–octanol to aqueous. All experiments were made in triplicate.

In data set [3] the test system is middle cerebral artery occlusion (MCAO) rats. The data set is described as follows: Evaluation of neurological deficit (Longa score) in MCAO rats. The settings on record: 24 h after reperfusion, single iv dose 2 h after reperfusion: paeonol and OS 3 mg/kg, POC 4.5 mg/kg, n = 6. In kind it is in vivo. The protocol:
Male Sprague Dawley (SD) rats weighing among 220 g-230 g (Anhui Medicine University, Hefei, China; certificate number: SCXK20190,003) were housed under ad libitum access to food and water with a standardized light-dark cycle condition (25 ± 2°C, 12-hour light/dark cycle). All the experimental protocols were performed in accordance with the Institutional Animal Care and Use Committee of Anhui University of Chinese Medicine (Animal ethics number: AHUCM-rats-2019001). We used the minimal number of study animals (n = 6 rats in each group for different experiments). The rats were fastened upon the operating table in a supine position after being anesthetized with 2% pelltobarbitalum natricum (50 mg/kg). After disinfection of the skin within close proximity of the operative region, the right common carotid artery (CCA), external carotid artery (ECA) and internal carotid artery (ICA) were exposed with blunt dissection. The CCA was temporarily ligated and the ECA were permanently ligated ([Liu et al., 2016]). A nylon monofilament surgical thread was introduced into the ICA to block the MCA when the blunted distal end met resistance. After 2 h of occlusion, reperfusion was accomplished to restore blood supply to the MCA area by removing the filament ([Li et al., 2009]; [Zhai et al., 2017]). […] Rats were split randomly into five groups, including the sham, model, paeonol, OS and POC group. […] Neurological deficit was evaluated 24 h after reperfusion (blinded to experimenters). […] The rating score was assessed by the following standard: no neurological deficit, 0; failure to extend left forepaw fully, one; spontaneous circling to the left, two; falling to the left, three; inability to walk spontaneously and coma of consciousness, 4. […] Neurological scores for each group were calculated using six rats according to a sample size calculation (α err prob = 0.05, 1-β err prob = 0.95) and references ([Katayama et al., 2017]; [[…] al., 2019]; [Zheng et al., 2019]).

Data set [4] shares this test system. Kind of data set: HE staining, histopathologic changes in brain cortex of MCAO rats. Format: in vivo. As to conditions: 24 h after treatment, POC 4.5 mg/kg iv, compared with the model group, n = 3. The procedure: Male Sprague Dawley (SD) rats weighing among 220 g–230 g (Anhui Medicine University, Hefei, China; certificate number: SCXK20190,003) were housed under ad libitum access to food and water with a standardized light-dark cycle condition (25 ± 2°C, 12–hour light/dark cycle). All the experimental protocols were performed in accordance with the Institutional Animal Care and Use Committee of Anhui University of Chinese Medicine (Animal ethics number: AHUCM–rats–2019001). We used the minimal number of study animals (n = 6 rats in each group for different experiments). The rats were fastened upon the operating table in a supine position after being anesthetized with 2% pelltobarbitalum natricum (50 mg/kg). After disinfection of the skin within close proximity of the operative region, the right common carotid artery (CCA), external carotid artery (ECA) and internal carotid artery (ICA) were exposed with blunt dissection. The CCA was temporarily ligated and the ECA were permanently ligated ([Liu et al., 2016]). A nylon monofilament surgical thread was introduced into the ICA to block the MCA when the blunted distal end met resistance. After 2 h of occlusion, reperfusion was accomplished to restore blood supply to the MCA area by removing the filament ([Li et al., 2009]; [Zhai et al., 2017]). […] Rats were split randomly into five groups, including the sham, model, paeonol, OS and POC group. […]

Turning to `COc1ccc(C(C)=O)c(OC(=O)C=Cc2ccc(Cn3ccnc3)cc2)c1` [POC, paeonol-ozagrel conjugate], the “solubility in ethyl acetate” value in data set [1] (ethyl acetate) is on record as “slightly soluble”. Also, the “solubility in methanol and ethanol” value in data set [1] (methanol and ethanol) is “easily soluble”. Besides, the solubility in water result in data set [1] (water) is listed as “almost insoluble or insoluble”. In addition, the logD in data set [2] was 0.425. The “neurological deficits score (Longa, 0-4)” value in data set [3] is listed as 1.50 ± 0.55. In data set [4], the “histopathologic changes in brain cortex (HE)” value is on record as “only marginal neuronal cells damage”.
